Assay results from article PMC7617456, “Cryptosporidium lysyl-tRNA synthetase inhibitors define the interplay between solubility and permeability required to achieve efficacy” (Science translational medicine, 2024).

How the values were obtained:
5-HT transporter (h) = molecular target: T1, 5-HT transporter (h) (Homo sapiens, UniProt P31645); assay: SafetyScreen44 panel: 5-HT transporter; format: binding
T1 construct: Eurofins Cerep
Source text: As previously described.(31)
Table S2. ADME properties and in vitro assessment of toxicity/off-target effects for DDD489 and […]
Data are from a single biological replicate. (A) In vitro ADME properties. FaSSIF is Fasted State Simulated Intestinal Fluid Solubility. MDCK-MDR1 is a Madin-Darby canine kidney cell line transfected with the MDR1 gene, encoding for the efflux protein, P-glycoprotein (P-gp). Papp is apparent permeability, measured in the presence of P-gp inhibitor, GF120918. Efflux ratio is calculated as the ratio of Papp B-A/A-B. CHIlogD is chromatographic hydrophobicity index logD, measured at pH 7.4. clogP is calculated logP, determined by […]
Heps Cli is liver hepatocyte intrinsic clearance,
PPB is plasma protein binding.
Data quoted is percent bound. M=mouse, r=rat, d=dog, b=bovine, h=human. (B) In vitro toxicity assays. Cyp450
IC50 is cytochrome p450 enzyme inhibition. Mini-Ames was conducted in the presence and absence of S9 mix in four strains of Salmonella typhimurium. hERG IC50 is human ether-a-go-go related gene inhibition, measured using manual patch-clamp technique. (C) Mitochondrial toxicity assay data. (D) In a safety p anel of receptors and […]

Dog pharmacokinetics = format: in vivo
Experimental: Dog pharmacokinetics (WuXi App Tec)
As for mouse except using male beagle dogs (IV dose volume: 3 mg/mL; dose vehicle: 10% DMSO, 40% PEG400, 50% (40%HP-β-CD in water); PO dose volume: 2 mg/mL; dose vehicle: 1% CMC-Na(800-1200)+0.2% Tween 80 in water). Pharmacokinetic parameters were derived from the blood concentration-time curve using WinNonLin Professional Software v 6.3 (Pharsight Corporation). […]

[1] = test system: transgenic C. parvum that express NanoLuciferase; assay: NOD SCID Gamma chronic mouse efficacy model; format: in vivo; details: 50 mg/kg BID oral 7 days from day 36 PI
Experimental: We next developed a mouse efficacy model that mimics chronic infection. In this model, NOD SCID Gamma mice were allowed to become highly infected (>10^9 RLU) and maintain this for a minimum of one week before compound treatment was administered (Fig. 4C). To achieve efficacy against this chronic infection, compounds must kill more parasites, offering a more rigorous method for assessing suitability for progression.
Male NOD SCID Gamma mice (NOD.Cg-Prkdc^scid Il2rgtm1Wjl/SzJ; purchased from Charles Rivers) aged 10 weeks old were used (n = 4 mice per experimental group). Mice were infected by oral gavage (5,000 oocysts of Δtk::mNeon-Neo^R). Oocyst shedding in feces was determined by NanoLuciferase assay as described above. Once infection became chronic (at least 1 week of fecal RLUs/g at >10^9), compounds were administered. DDD489 was prepared in HPMC without DMSO and administered by oral gavage at 50 mg/kg starting day 36 post infection. Early lead compound DDD706 served as the positive control (administered at 20 mg/kg QD). Fecal samples were pooled from all mice in the cage on days indicated.

[2] = male, beagle, whole blood, dog PO 10 mg/kg

T1 sequence (P31645 whole entry): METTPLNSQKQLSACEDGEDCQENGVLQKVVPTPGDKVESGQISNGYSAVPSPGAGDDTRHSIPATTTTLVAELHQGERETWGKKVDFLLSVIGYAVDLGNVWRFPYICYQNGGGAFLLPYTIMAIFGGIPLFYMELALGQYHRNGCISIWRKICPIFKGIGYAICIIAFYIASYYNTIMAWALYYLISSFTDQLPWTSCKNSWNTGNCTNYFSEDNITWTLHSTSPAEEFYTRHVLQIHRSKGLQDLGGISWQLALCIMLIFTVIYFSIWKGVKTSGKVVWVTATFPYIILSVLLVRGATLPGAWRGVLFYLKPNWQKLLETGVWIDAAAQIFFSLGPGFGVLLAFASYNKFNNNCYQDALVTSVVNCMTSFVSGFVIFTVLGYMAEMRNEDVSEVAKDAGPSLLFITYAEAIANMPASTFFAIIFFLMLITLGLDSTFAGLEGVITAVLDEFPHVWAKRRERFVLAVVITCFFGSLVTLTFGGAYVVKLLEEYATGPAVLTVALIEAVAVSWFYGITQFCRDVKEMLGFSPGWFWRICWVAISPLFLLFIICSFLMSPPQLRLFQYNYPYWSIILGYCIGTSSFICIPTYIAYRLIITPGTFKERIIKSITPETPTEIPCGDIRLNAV

`Nc1nc2c(c(C(F)(F)F)n1)C(=O)N(CC1CCCC(C(F)(F)F)C1)C2` (centres unmarked) [DDD489] gave an inhibition at 10 µM (5-HT transporter (h)) of 62%, a CLB (Dog pharmacokinetics; dog IV 3 mg/kg, clearance in blood) of 52 mL/min/kg and a half-life (Dog pharmacokinetics; male, beagle, whole blood, 3 mg/kg, dog, IV, read-out: T½ (converted)) of 102 min. For the same compound, the Vd (Dog pharmacokinetics; male, beagle, whole blood, 3 mg/kg, dog, IV, read-out: Vdss) was 4.2 L/kg, the AUC (Dog pharmacokinetics; male, beagle, whole blood, dog IV 3 mg/kg) was 1000 ng·h/mL and the AUC (Dog pharmacokinetics; [2]) was 667 ng·h/mL. It also gave a Cmax (Dog pharmacokinetics; [2]) of 200 ng/mL, a Tmax (Dog pharmacokinetics; [2]) of 1.2 h and a bioavailability (Dog pharmacokinetics; male, beagle, whole blood, dog PO 10 mg/kg, read-out: F (oral bioavailability)) of 18%. The “parasite shedding by end of treatment period” value [1] was “reduce parasite shedding below the LOQ” and the recrudescence [1] was “failed to prevent recrudescence”.
